Reference: patent US10300067B2, “Tetrahydropyridopyrimidine compound or salt thereof” (TAIHO PHARMACEUTICAL CO., LTD., priority 2014, dated 2019)

How the values were obtained:
[1] = target: human androgen receptor (Homo sapiens (Human), UniProt P10275); experiment: Antagonist activity for AR (pMMTV-luc reporter transcription activity in transfected COS-7 cells, DHT 1 nmol/L); assay type: cell-based; conditions: 50% transcription activity inhibition concentration; COS-7 cells with pMMTV-luc and pEX-hAR, DHT 1 nmol/L, 24 hours
Outline: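 COS-7 cells co-transfected with pMMTV-luc reporter and CMV-driven human AR expression vector, cultured overnight in phenol red-free RPMI1640 with 10% charcoal-treated FBS. Antagonism measured against 1 nmol/L DHT by luciferase transcription activity.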

[2] = tested on: Human prostate cancer cells LNCaP; experiment: Androgen-dependent inhibitory activity on proliferation of prostate cancer cells; assay type: cell-based; conditions: 50% proliferation inhibition concentration, DHT 10 nmol/L, 72 hours, read-out: GI50 value
[3] = tested on: AR positive human prostate cancer cells VCaP; experiment: Agonist activity for AR (cell proliferation rate of VCaP cells); assay type: cell-based; conditions: 72 hours, 2 to 10000 nmol/L, more than 10% at any concentration = agonist activity for AR
Outline: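 VCaP cells seeded at 1.5×10^4/well in phenol-red-free RPMI1640 with 5% DCC-FBS, then exposed 72 h to compound at 2–10000 nmol/L (9 concentrations). Viable cells counted by CellTiter-Glo; proliferation rate (%) relative to medium-only control, agonist activity called when >10% at any concentration.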

[4] = target: androgen receptor (Homo sapiens (Human), UniProt P10275, T878A); experiment: Activity of reducing expression level of androgen receptor (Western blotting of LNCaP cell lysate); assay type: cell-based; conditions: 48 hours
Outline: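 LNCaP prostate cancer cells (AR T878A) in phenol red-free RPMI1640 with 5% FBS treated with compound at final 10000 nmol/L for 48 h. Cell lysates analysed by Western blot with anti-AR antibody; band quantified by chemiluminescence.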

[5] = tested on: LNCaP-Xeno-IL-6 cells; experiment: Anti-tumor activity in in vivo model of castration resistant prostate cancer; conditions: castrated male nude mice, oral, every day for 2 weeks
Procedure: From the AR positive human prostate cancer cells LNCaP, castration resistant prostate cancer cells, LNCaP-Xeno-IL-6 cells, were established based on the scientific paper (Clin Cancer Res, 2001 7:2941-8) (in the paper, the cells have been reported as LNCaP-IL-6+ cells) and used for the in vivo test. The LNCaP-Xeno-IL-6 cells were implanted subcutaneously in male nude mice, and the castration treatment was performed when the tumor volume reached about 200 mm^3. After the castration, the vehicle only (0.5% HPMC) or the compound of Examples suspended in the vehicle was orally administered to the mice every day for 2 weeks. The compound of Examples was administered such that there was no difference in an exposure amount between the compounds. After the administration for 2 weeks, the tumor volume of each mouse was recorded and the average tumor volume of the group administered with the evaluation compound relative to the average tumor volume of the group administered only with the vehicle, that is, T/C (%), was calculated based on the following formula. T/C (%)=(Average tumor volume of evaluation compound group)/(Average tumor volume of vehicle administration group)

Sequence of androgen receptor (P10275 whole entry T878A): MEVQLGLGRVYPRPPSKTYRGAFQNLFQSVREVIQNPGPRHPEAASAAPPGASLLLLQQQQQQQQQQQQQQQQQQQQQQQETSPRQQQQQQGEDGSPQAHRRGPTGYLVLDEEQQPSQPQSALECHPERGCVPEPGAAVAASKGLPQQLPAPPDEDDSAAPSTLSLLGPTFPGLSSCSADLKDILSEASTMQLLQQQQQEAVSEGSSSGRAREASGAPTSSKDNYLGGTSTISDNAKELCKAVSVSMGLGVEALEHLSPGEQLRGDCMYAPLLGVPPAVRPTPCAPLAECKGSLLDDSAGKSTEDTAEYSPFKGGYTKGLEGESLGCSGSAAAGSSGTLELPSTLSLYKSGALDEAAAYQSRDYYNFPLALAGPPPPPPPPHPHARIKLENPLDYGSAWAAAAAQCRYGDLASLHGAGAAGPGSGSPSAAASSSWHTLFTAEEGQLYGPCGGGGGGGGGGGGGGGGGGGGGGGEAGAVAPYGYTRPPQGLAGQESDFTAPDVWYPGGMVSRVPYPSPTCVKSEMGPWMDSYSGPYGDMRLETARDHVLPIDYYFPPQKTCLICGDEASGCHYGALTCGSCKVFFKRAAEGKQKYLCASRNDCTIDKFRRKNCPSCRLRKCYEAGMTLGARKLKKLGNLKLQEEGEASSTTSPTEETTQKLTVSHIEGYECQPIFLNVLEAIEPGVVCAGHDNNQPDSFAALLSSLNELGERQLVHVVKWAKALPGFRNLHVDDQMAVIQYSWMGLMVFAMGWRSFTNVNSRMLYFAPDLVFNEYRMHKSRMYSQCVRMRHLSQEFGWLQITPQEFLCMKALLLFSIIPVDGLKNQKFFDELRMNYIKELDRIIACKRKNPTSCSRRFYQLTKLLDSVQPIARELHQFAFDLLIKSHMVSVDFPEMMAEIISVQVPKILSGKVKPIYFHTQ
Sequence of human androgen receptor (P10275 whole entry): as the sequence (P10275 whole entry T878A) above, with A878T counted along it

Row | Structure (SMILES) | IC50 [1] [nM] | GI50 [2] [nM] | Cell proliferation rate (%) [3] [%] | 10 μM AR expression reducing activity [4] | T/C (%) ([5]; daily dose 100 mg/kg/day) | T/C (%) ([5]; daily dose 30 mg/kg/day)
1 | CC(C)(O)c1ccc(Nc2ncnc3c2CCN(c2ccc(C#N)c(Cl)c2)C3)nn1 [Example 6, 2-chloro-4-(4-((6-(2-hydroxypropan-2-yl)pyridazin-3-yl)amino)-5,6-dihydropyrido[3,4-d]pyrimidin-7 (8H)-yl)benzonitrile] | 70 | 400 | −0.7 | reduced (When the AR expression reducing activity is 50% or more, it is described as “reduced”) | 29 | –
2 | CC(C)(O)c1ccc(Nc2ncnc3c2CCN(c2ccc(C#N)c(C(F)(F)F)c2)C3)nc1 [Example 7, 4-(4-((5-(2-hydroxypropan-2-yl)pyridin-2-yl)amino)-5,6-dihydropyrido[3,4-d]pyrimidin-7(8H)-yl)-2-(trifluoromethyl)benzonitrile] | 160 | 500 | 4.9 | reduced (When the AR expression reducing activity is 50% or more, it is described as “reduced”) | – | 49
